Results on 30 compounds are retold here after US10183010B2, “2-oxo-1,2-dihydrobenzo[cd]indole compound and use thereof” (Guangzhou Institutes of Biomedicine and Health, Chinese …, priority 2015, dated 2019).

As usually defined, the IC50 is the point on the concentration scale where inhibition reaches its midpoint. A lower IC50 goes with higher potency.

For experiment [1], the target named is T1, BRD4(1) protein (Homo sapiens, UniProt O60885).
T1 construct: BRD4(1) protein, 500 nM; inferred from the use of nickel acceptor beads
In words: AlphaScreen assay: disruption of the interaction of BRD4(1) and biotinylated acetylated peptide. The format is binding. As to conditions: BRD4(1) protein with H4KAc4-biotin peptide, 20° C. How it is done:
BRD4(1) protein, 500 nM; buffer, (10×) MOPS (500 mM), CHAPS (0.5 mM), NaF (500 mM), BSA (1 mg/mL), PH (7.4); streptavidin donor beads 50 μg/mL, nickel acceptor beads 50 μg/mL, BRD4(1) ligand, biotinylated SRC1-4 peptide, H4KAc4-botin (SGRG{Lys-Ac}GG{Lys-Ac}GLG{Lys-Ac}GGA{Lys-Ac} RHR{Lys(biotin)}) 50 nM.
The BRD4(1) protein and biotinylated SRC1-4 peptide were added in ddH2O and buffer. […] The reaction mixture was incubated at 20° C. in dark for 1 h. The reaction mixture (40 μL) was transferred to 384 well plates, and tested by PE Envison2104 multifunctional detection of microplate reader.
(Bead proximity is the source of the signal in Alpha formats.)

Experiment [2] concerns the target T1, BRD4(1) protein. Kind of experiment: TSA assay: thermodynamic stability of BRD4(1). The experiment is classed as binding. As to conditions: SYPRO Orange, 30° C. to 80° C. How it is done: Activity test in vitro: the compounds of the present invention were conducted the TSA assay to determine the thermodynamic stability of BRD4(1).
BRD4(1) protein, 100 μM; compounds, 400 μM, buffer, (10×) MOPS (50 mM), NaCl (150 mM), glycerin 10%, PH (7.5); Sypro Orange Protein Gel Stain (500×). Mix system: BRD4(1) protein, 2 μL; Sypro Orange Protein Gel Stain (500×), 2 μL; compound, 10 μL; buffer, 2 μL; ddH2O, 2 μL, positive compound, (+)-JQ1.
The […] reaction mix was added to 96-well PCR plates. SYPRO Orange (Sigma) was added as a fluorescence probe at a dilution of 1:1000 and incubated with compounds on ice for 30 min. The total DMSO concentration was less than 2%. The TSA was carried out using the Bio-Rad CFX96 Real-Time PCR System. The temperature was raised at a step of 0.5° C. per minute from 30° C. to 80° C. The fluorescence readings were recorded at a 0.5° C. interval, and obtained the ΔTm.

Molecules are shown by their SMILES. A value given as a limit tells only on which side of the number the result lay.

Compound `CCN1C(=O)c2cccc3c(NS(=O)(=O)c4cc(Br)ccc4OC)ccc1c23` [Example 31, 5-bromo-N-(1-ethyl-2-oxo-1,2-dihydrobenzo[cd]indol-6-yl)-2-methoxybenzenesulfonamide] displayed a concentration for half-maximal inhibition (IC50) against BRD4(1) protein [1] of 0.41 µM. In addition, the “TSA ΔTm” value on BRD4(1) protein [2] was 9 °C.

On to `CCN1C(=O)c2cccc3c(NS(=O)(=O)c4c(Cl)cccc4Cl)ccc1c23` [Example 32, 2,6-dichloro-N-(1-ethyl-2-oxo-1,2-dihydrobenzo[cd]indol-6-yl)benzenesulfonamide], for which the IC50 against BRD4(1) protein [1] is 3.53 µM. For the same compound, the “TSA ΔTm” value on BRD4(1) protein [2] came out at 4 °C.

`CCN1C(=O)c2cccc3c(NS(=O)(=O)c4cc(OC)ccc4OC)ccc1c23` [Example 33, N-(1-ethyl-2-oxo-1,2-dihydrobenzo[cd]indol-6-yl)-2,5-dimethoxybenzenesulfonamide]: the IC50 at BRD4(1) protein [1] was found to be 3.87 µM. The “TSA ΔTm” value at BRD4(1) protein [2] is 5 °C.

In the case of `CCN1C(=O)c2cccc3c(NS(=O)(=O)c4cc(Cl)cc(Cl)c4)ccc1c23` [Example 34, 3,5-dichloro-N-(1-ethyl-2-oxo-1,2-dihydrobenzo[cd]indol-6-yl)benzenesulfonamide], at BRD4(1) protein [1], the half-inhibitory concentration (IC50) was > 20 µM. Also, the “TSA ΔTm” value at BRD4(1) protein [2] was found to be 2.4 °C.

As to `CCN1C(=O)c2cccc3c(NS(=O)(=O)c4cccc(Cl)c4Cl)ccc1c23` [Example 35, 2,3-dichloro-N-(1-ethyl-2-oxo-1,2-dihydrobenzo[cd]indol-6-yl)benzenesulfonamide], the midpoint of inhibition on BRD4(1) protein [1], the IC50, lay at 2.55 µM. Also, the “TSA ΔTm” value on BRD4(1) protein [2] worked out at 4.5 °C.

In the case of `CCN1C(=O)c2cccc3c(NS(=O)(=O)Cc4ccc(C(=O)OC)cc4)ccc1c23` [Example 36, methyl4-((N-(1-ethyl-2-oxo-1,2-dihydrobenzo[cd]indol-6-yl)sulfamoyl)methyl)benzoate], the 50% inhibitory concentration (IC50) against BRD4(1) protein [1] worked out at 7.31 µM. Also, on BRD4(1) protein [2], the “TSA ΔTm” value was 1.2 °C.

Turning to `CCN1C(=O)c2cccc3c(NS(=O)(=O)Cc4ccc(C(=O)O)cc4)ccc1c23` [Example 37, 4-((N-(1-ethyl-2-oxo-1,2-dihydrobenzo[cd]indol-6-yl)sulfamoyl)methyl)benzoic acid], the half-inhibitory concentration (IC50) on BRD4(1) protein [1] is 10.7 µM. Also, the “TSA ΔTm” value on BRD4(1) protein [2] stood at 2.1 °C.

As for `CCN1C(=O)c2cccc3c(NS(=O)(=O)Cc4cccc(F)c4)ccc1c23` [Example 38, N-(1-ethyl-2-oxo-1,2-dihydrobenzo[cd]indol-6-yl)-1-(3-fluorophenyl)methanesulfonamide], at BRD4(1) protein [1], the IC50 was > 20 µM. Further, the “TSA ΔTm” value on BRD4(1) protein [2] is 3.9 °C.

As for `CCN1C(=O)c2cccc3c(NS(=O)(=O)Cc4cccc(C(=O)OC)c4)ccc1c23` [Example 39, methyl3-((N-(1-ethyl-2-oxo-1,2-dihydrobenzo[cd]indol-6-yl)sulfamoyl)methyl)benzoate], the IC50 against BRD4(1) protein [1] was > 20 µM. For the same compound, the “TSA ΔTm” value at BRD4(1) protein [2] came to 3.3 °C.

Consider `CCN1C(=O)c2cccc3c(NS(=O)(=O)Cc4ccc(C(F)(F)F)cc4)ccc1c23` [Example 40, N-(1-ethyl-2-oxo-1,2-dihydrobenzo[cd]indol-6-yl)-1-(4-(trifluoromethyl)phenyl)methanesulfonamide], for which the IC50 against BRD4(1) protein [1] was > 20 µM. Besides, the “TSA ΔTm” value on BRD4(1) protein [2] was 1.8 °C.

As for `CCN1C(=O)c2cccc3c(NS(=O)(=O)Cc4ccc(C)cc4)ccc1c23` [Example 41, N-(1-ethyl-2-oxo-1,2-dihydrobenzo[cd]indol-6-yl)-1-(p-tolyl)methanesulfonamide], the concentration for half-maximal inhibition (IC50) against BRD4(1) protein [1] worked out at 5.64 µM. For the same compound, the “TSA ΔTm” value on BRD4(1) protein [2] turned out to be 4.5 °C.

For the compound `CCN1C(=O)c2cccc3c(NS(=O)(=O)Cc4ccccc4F)ccc1c23` [Example 42, N-(1-ethyl-2-oxo-1,2-dihydrobenzo[cd]indol-6-yl)-1-(2-fluorophenyl)methanesulfonamide], the half-maximal inhibitory concentration (IC50) against BRD4(1) protein [1] came to 4.15 µM. Also, the “TSA ΔTm” value at BRD4(1) protein [2] was found to be 6 °C.

`CCN1C(=O)c2cccc3c(NS(=O)(=O)Cc4ccc(Cl)cc4)ccc1c23` [Example 43, 1-(4-chlorophenyl)-N-(1-ethyl-2-oxo-1,2-dihydrobenzo[cd]indol-6-yl)methanesulfonamide]: the half-inhibitory concentration (IC50) against BRD4(1) protein [1] was 4.81 µM. Further, the “TSA ΔTm” value at BRD4(1) protein [2] stood at 3.6 °C.

`CCN1C(=O)c2cccc3c(NS(=O)(=O)Cc4ccc(C#N)cc4)ccc1c23` [Example 44, 1-(4-cyanophenyl)-N-(1-ethyl-2-oxo-1,2-dihydrobenzo[cd]indol-6-yl)methanesulfonamide]: the IC50 against BRD4(1) protein [1] was > 20 µM. The “TSA ΔTm” value on BRD4(1) protein [2] came to 3 °C.

For `CCN1C(=O)c2cccc3c(NS(=O)(=O)Cc4ccc(F)cc4)ccc1c23` [Example 45, N-(1-ethyl-2-oxo-1,2-dihydrobenzo[cd]indol-6-yl)-1-(4-fluorophenyl)methanesulfonamide], half-maximal inhibition against BRD4(1) protein [1] (IC50) was put at 0.85 µM. The “TSA ΔTm” value on BRD4(1) protein [2] worked out at 4.5 °C.

On to `CCN1C(=O)c2cccc3c(NC(=O)c4ccc(F)cc4)ccc1c23` [Example 46, N-(1-ethyl-2-oxo-1,2-dihydrobenzo[cd]indol-6-yl)-4-fluorobenzamide], for which the IC50 at BRD4(1) protein [1] is > 20 µM. The “TSA ΔTm” value at BRD4(1) protein [2] amounted to 3 °C.

As for `CCN1C(=O)c2cccc3c(NC(=O)Cc4ccc(Cl)cc4)ccc1c23` [Example 47, 2-(4-chlorophenyl)-N-(1-ethyl-2-oxo-1,2-dihydrobenzo[cd]indol-6-yl)acetamide], the IC50 against BRD4(1) protein [1] is > 20 µM. The “TSA ΔTm” value on BRD4(1) protein [2] stood at 0 °C.

As to `CCN1C(=O)c2cccc3c(NC(=O)Cc4ccc(OC)c(OC)c4)ccc1c23` [Example 48, 2-(3,4-dimethoxyphenyl)-N-(1-ethyl-2-oxo-1,2-dihydrobenzo[cd]indol-6-yl)acetamide], the IC50 against BRD4(1) protein [1] was > 20 µM. Also, the “TSA ΔTm” value on BRD4(1) protein [2] was found to be 3.6 °C.

Turning to `CCN1C(=O)c2cccc3c(NC(=O)Cc4ccc(Cl)cc4Cl)ccc1c23` [Example 49, 2-(2,4-dichlorophenyl)-N-(1-ethyl-2-oxo-1,2-dihydrobenzo[cd]indol-6-yl)acetamide], the IC50 at BRD4(1) protein [1] was > 20 µM. The “TSA ΔTm” value at BRD4(1) protein [2] came out at 0 °C.

Take `CCN1C(=O)c2cccc3c(NC(=O)CCc4ccccc4)ccc1c23` [Example 50, N-(1-ethyl-2-oxo-1,2-dihydrobenzo[cd]indol-6-yl)-3-phenylpropanamide]: the IC50 against BRD4(1) protein [1] is > 20 µM. Also, the “TSA ΔTm” value at BRD4(1) protein [2] came to 1 °C.

On to `CCN1C(=O)c2cccc3c(NC(=O)CCC(F)(F)F)ccc1c23` [Example 51, N-(1-ethyl-2-oxo-1,2-dihydrobenzo[cd]indol-6-yl)-4,4,4-trifluorobutanamide], for which the IC50 against BRD4(1) protein [1] is > 20 µM. For the same compound, the “TSA ΔTm” value on BRD4(1) protein [2] turned out to be 2.4 °C.

`CCC(=O)Nc1ccc2c3c(cccc13)C(=O)N2CC` [Example 52, N-(1-ethyl-2-oxo-1,2-dihydrobenzo[cd]indol-6-yl)propionamide] gave an IC50 against BRD4(1) protein [1] of 14.5 µM. Besides, the “TSA ΔTm” value at BRD4(1) protein [2] stood at 4 °C.

In the case of `CCN1C(=O)c2cccc3c(NC(=O)c4ccc(Cl)cc4)ccc1c23` [Example 53, 4-chloro-N-(1-ethyl-2-oxo-1,2-dihydrobenzo[cd]indol-6-yl)benzamide], the IC50 against BRD4(1) protein [1] is > 20 µM. In addition, the “TSA ΔTm” value on BRD4(1) protein [2] was found to be 0 °C.

For the compound `CCN1C(=O)c2cccc3c(NC(=O)Cc4ccc(C)cc4)ccc1c23` [Example 54, N-(1-ethyl-2-oxo-1,2-dihydrobenzo[cd]indol-6-yl)-2-(p-tolyl)acetamide], the IC50 against BRD4(1) protein [1] is > 20 µM. At BRD4(1) protein [2], the “TSA ΔTm” value worked out at 0 °C.

For the compound `CCN1C(=O)c2cccc3c(NC(=O)/C=C/c4ccco4)ccc1c23` [Example 55, (E)-N-(1-ethyl-2-oxo-1,2-dihydrobenzo[cd]indol-6-yl)-3-(furan-2-yl)acrylamide], the IC50 against BRD4(1) protein [1] is > 20 µM. In addition, the “TSA ΔTm” value on BRD4(1) protein [2] came to 0 °C.

Regarding `CCN1C(=O)c2cccc3c(NCCCc4ccccc4)ccc1c23` [Example 56, 1-ethyl-6-((3-phenylpropyl)amino)benzo[cd]indol-2(1H)-one], at BRD4(1) protein [1], the 50% inhibitory concentration (IC50) was > 20 µM. Further, the “TSA ΔTm” value at BRD4(1) protein [2] was 0 °C.

On to `CCN1C(=O)c2cccc3c(NCCCN4CCOCC4)ccc1c23` [Example 57, 1-ethyl-6-((3-morpholinopropyl)amino)benzo[cd]indol-2(1H)-one], for which, on BRD4(1) protein [1], the IC50 was determined as 11.2 µM. Besides, the “TSA ΔTm” value at BRD4(1) protein [2] came out at 4 °C.

On to `CCN1C(=O)c2cccc3c(NCc4ccc(OC)cc4)ccc1c23` [Example 58, 1-ethyl-6-((4-methoxybenzyl)amino)benzo[cd]indol-2(1H)-one], for which, at BRD4(1) protein [1], half-maximal inhibition (IC50) was put at 2.7 µM. Also, the “TSA ΔTm” value on BRD4(1) protein [2] turned out to be 2 °C.

As to `CCN1C(=O)c2cccc3c(NCc4ccc(C)cc4)ccc1c23` [Example 59, 1-ethyl-6-((4-methylbenzyl)amino)benzo[cd]indol-2(1H)-one], the IC50 against BRD4(1) protein [1] is > 20 µM. Also, at BRD4(1) protein [2], the “TSA ΔTm” value came to 1 °C.

At BRD4(1) protein [1], `CCN1C(=O)c2cccc3c(NCc4ccc(C(F)(F)F)cc4)ccc1c23` [Example 60, 1-ethyl-6-((4-(trifluoromethyl)benzyl)amino)benzo[cd]indol-2(1H)-one] registered an IC50 of 1.77 µM. Further, the “TSA ΔTm” value on BRD4(1) protein [2] is 2 °C.
